# US4129591A, “Ureida-phenylenebis(substituted imino)multianionic substituted dinaphthalene sulfonic acids and salts” (American Cyanamid Company, priority 1976, dated 1978)
# Where a name gives a salt, the structure may show the parent alone.
# Key:
# whole complement = assay: Complement level reduction in dosed guinea pigs (capillary tube assay); format: in vivo; conditions: guinea pig, 200 mg/kg
# [1] = test system: shunt pathway activated by cobra venom factor; assay: Test, Code 036 (C-Shunt inhibitor), lysis of human erythrocytes in autologous serum; format: cell-based
# From the text: (§1) An active inhibitor protects C2 from C1 and C4; (ii) Test, Code 035 (C3-C9 inhibitor) -- This test determines the ability of the late components of human complement (C3-C9) to lyse EAC 142 in the presence of appropriate dilutions of the test compound. An active inhibitor protects EAC 142 from lysis by human C3-C9; (iii) Test, Code 036 (C-Shunt inhibitor) -- In this test human erythrocytes rendered fragile are lysed in autologous serum via the shunt pathway activated by cobra venom factor in the presence of appropriate dilutions of the test compound. Inhibition of the shunt pathway results in failure of lysis; (iv) Forssman Vasculitis Test -- Here, the well known complement dependent lesion, Forssman vasculitis, is produced in guinea pigs by intradermal injection of rabbit anti-Forssman antiserum. The lesion is measured in terms of diameter, edema and hemorrhage and the extent to which a combined index of these is inhibited by prior intraperitoneal injection of the test compound at 200 mg/kg is then reported, unless otherwise stated; (v) Forssman Shock Test -- Lethal shock is produced in guinea pigs by an i.v. injection of anti-Forssman antiserum and the harmonic mean death time of treated guinea pigs is compared with that of simultaneous controls; (vi) Complement Level Reduction Test -- In this test, the above dosed guinea pigs, or others, are bled for serum and the complement level is determined in undiluted serum by the capillary tube method of U.S. Pat. No. 3,876,376 and compared to undosed control guinea pigs; and (vii) Cap 50 Test -- Here, appropriate amounts of the test compound are added to a pool of guinea pig serum in vitro, after which the undiluted serum capillary tube assay referred to above is run. The concentration of compound inhibiting 50% is reported.
# [2] = test system: late components of human complement (C3-C9); assay: Test, Code 035 (C3-C9 inhibitor), lysis of EAC 142; format: cell-based; conditions: human C3-C9, EAC 142, in vitro
# From the text: as §1
# [3] = test system: hereditary angioneurotic edema; conditions: New England Journal of Medicine, 286, 808-812 (1972); cited from earlier work
# complement system = conditions: literature; cited from earlier work
# activated human C1 = biological target: T1, activated human C1 (Homo sapiens, UniProt P09871); assay: Test, Code 026 (C1 inhibitor); format: biochemical; conditions: human C1, in vitro
# T1 construct: fluid-phase human C2 cleavage in presence of C4
# From the text: An active inhibitor protects C2 from C1 and C4; (ii) Test, Code 035 (C3-C9 inhibitor) -- This test determines the ability of the late components of human complement (C3-C9) to lyse EAC 142 in the presence of appropriate dilutions of the test compound. An active inhibitor protects EAC 142 from lysis by human C3-C9; (iii) Test, Code 036 (C-Shunt inhibitor) -- In this test human erythrocytes rendered fragile are lysed in autologous serum via the shunt pathway activated by cobra venom factor in the presence of appropriate dilutions of the test compound. Inhibition of the shunt pathway results in failure of lysis; (iv) Forssman Vasculitis Test -- Here, the well known complement dependent lesion, Forssman vasculitis, is produced in guinea pigs by intradermal injection of rabbit anti-Forssman antiserum. […]
# T1 sequence (P09871 16-688): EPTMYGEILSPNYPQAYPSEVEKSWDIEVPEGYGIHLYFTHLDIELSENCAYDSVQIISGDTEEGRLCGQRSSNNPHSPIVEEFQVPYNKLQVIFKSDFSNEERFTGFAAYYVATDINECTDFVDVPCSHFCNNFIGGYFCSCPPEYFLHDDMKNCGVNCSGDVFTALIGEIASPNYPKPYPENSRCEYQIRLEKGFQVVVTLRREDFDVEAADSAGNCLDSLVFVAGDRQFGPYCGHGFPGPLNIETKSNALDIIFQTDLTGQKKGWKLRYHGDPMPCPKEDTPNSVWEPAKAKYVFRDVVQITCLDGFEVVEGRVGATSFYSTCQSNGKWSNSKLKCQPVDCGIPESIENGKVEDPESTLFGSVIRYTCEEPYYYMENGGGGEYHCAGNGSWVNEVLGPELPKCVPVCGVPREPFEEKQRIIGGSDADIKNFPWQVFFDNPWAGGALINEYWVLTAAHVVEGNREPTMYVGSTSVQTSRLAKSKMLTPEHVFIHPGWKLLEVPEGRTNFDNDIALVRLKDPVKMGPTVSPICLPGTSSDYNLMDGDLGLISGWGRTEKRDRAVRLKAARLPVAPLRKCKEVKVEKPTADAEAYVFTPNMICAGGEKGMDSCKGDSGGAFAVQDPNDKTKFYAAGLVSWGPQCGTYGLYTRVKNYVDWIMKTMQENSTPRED
# T1 sequence (P00736 18-705 partner): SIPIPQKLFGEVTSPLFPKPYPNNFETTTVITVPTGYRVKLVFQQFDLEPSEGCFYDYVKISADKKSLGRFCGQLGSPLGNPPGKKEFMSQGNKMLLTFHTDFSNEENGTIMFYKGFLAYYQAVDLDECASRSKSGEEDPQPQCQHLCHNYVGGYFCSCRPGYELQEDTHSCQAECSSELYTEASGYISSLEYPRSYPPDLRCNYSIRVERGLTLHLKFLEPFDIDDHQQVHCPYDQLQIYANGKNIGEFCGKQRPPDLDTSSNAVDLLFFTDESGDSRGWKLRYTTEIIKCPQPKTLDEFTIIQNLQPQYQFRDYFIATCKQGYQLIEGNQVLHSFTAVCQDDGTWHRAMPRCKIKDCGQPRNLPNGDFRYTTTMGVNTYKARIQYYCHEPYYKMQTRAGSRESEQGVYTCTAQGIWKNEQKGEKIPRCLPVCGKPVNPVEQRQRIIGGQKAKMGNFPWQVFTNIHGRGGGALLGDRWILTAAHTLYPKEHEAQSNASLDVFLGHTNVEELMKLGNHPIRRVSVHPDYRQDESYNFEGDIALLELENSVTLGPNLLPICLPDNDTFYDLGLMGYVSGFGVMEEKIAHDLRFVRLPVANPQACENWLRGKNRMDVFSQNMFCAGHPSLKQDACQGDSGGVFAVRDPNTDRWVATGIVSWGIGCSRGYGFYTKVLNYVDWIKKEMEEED
# T1 sequence (P02745 23-245 partner): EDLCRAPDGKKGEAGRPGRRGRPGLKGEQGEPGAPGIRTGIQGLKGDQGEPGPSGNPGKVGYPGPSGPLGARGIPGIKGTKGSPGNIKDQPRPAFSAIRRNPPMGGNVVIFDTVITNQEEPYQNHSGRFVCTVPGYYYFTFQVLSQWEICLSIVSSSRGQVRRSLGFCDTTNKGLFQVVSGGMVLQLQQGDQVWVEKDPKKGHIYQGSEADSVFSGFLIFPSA
# T1 sequence (P02746 28-253 partner): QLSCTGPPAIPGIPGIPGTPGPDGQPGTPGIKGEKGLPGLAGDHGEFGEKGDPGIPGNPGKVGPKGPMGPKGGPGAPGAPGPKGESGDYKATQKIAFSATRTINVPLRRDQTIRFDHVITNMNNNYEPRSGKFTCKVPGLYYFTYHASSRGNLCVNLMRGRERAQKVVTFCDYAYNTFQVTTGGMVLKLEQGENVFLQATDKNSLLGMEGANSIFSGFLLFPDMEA
# T1 sequence (P02747 29-245 partner): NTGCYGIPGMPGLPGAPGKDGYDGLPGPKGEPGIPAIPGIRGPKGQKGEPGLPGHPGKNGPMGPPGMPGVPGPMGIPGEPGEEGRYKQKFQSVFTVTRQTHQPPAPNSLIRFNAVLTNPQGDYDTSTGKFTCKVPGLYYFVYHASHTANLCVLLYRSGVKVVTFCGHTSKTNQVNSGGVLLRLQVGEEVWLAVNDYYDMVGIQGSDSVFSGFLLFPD
Compound,"% change in complement level (whole complement; i.p., time 30)","% change in complement level (whole complement; i.p., time 60)",Shunt Inhibition 036* Wells [1],use in treatment of hereditary angioneurotic edema [3],anticomplementary effect / complement inhibition (complement system),also measured
"O=C(Nc1cc(C(=O)Nc2ccc(S(=O)(=O)O)c3cc(S(=O)(=O)O)cc(S(=O)(=O)O)c23)cc(C(=O)Nc2ccc(S(=O)(=O)O)c3cc(S(=O)(=O)O)cc(S(=O)(=O)O)c23)c1)Nc1cc(C(=O)Nc2ccc(S(=O)(=O)O)c3cc(S(=O)(=O)O)cc(S(=O)(=O)O)c23)cc(C(=O)Nc2ccc(S(=O)(=O)O)c3cc(S(=O)(=O)O)cc(S(=O)(=O)O)c23)c1 [8,8',8"",8""'-[Carbonylbis[imino-5,1,3-benzenetriylbis(carbonylimino)]]tetrakis[1-3,5-naphthalenesulfonic acid] dodecasodium salt]",-98%,-98%,–,–,–,–
"O=C(Nc1cc(C(=O)Nc2cc(S(=O)(=O)O)cc3cc(S(=O)(=O)O)ccc23)cc(C(=O)Nc2cc(S(=O)(=O)O)cc3cc(S(=O)(=O)O)ccc23)c1)Nc1cc(C(=O)Nc2cc(S(=O)(=O)O)cc3cc(S(=O)(=O)O)ccc23)cc(C(=O)Nc2cc(S(=O)(=O)O)cc3cc(S(=O)(=O)O)ccc23)c1 [4,4',4"",4'""-{Carbonylbis[imino-5,1,3-benzenetriylbis(carbonylimino)]}tetrakis[2,7-naphthalenedisulfonic acid] octasodium salt]",–,–,+3 Wells,–,–,"C-Late 035* Wells [2]: +1 Wells; C-Late 035* Wells (class symbol N) [2]: N (N means inactive, O Wells)"
NC[C@H]1CC[C@H](C(=O)O)CC1 [trans-4-(aminomethyl)-cyclohexanecarboxylic acid],–,–,–,used with success,–,–
heparin,–,–,–,–,anticomplementary effect,–
"O=C(Nc1cc(C(=O)Nc2cc(S(=O)(=O)O)cc3cc(S(=O)(=O)O)cc(O)c23)cc(C(=O)Nc2cc(S(=O)(=O)O)cc3cc(S(=O)(=O)O)cc(O)c23)c1)Nc1cc(C(=O)Nc2cc(S(=O)(=O)O)cc3cc(S(=O)(=O)O)cc(O)c23)cc(C(=O)Nc2cc(S(=O)(=O)O)cc3cc(S(=O)(=O)O)cc(O)c23)c1 [4,4',4"",4'""-[Carbonylbis[imino-5,1,3-benzenetriylbis(carbonylimino)]]tetrakis[5-hydroxy-2,7-naphthalenedisulfonic acid] octasodium salt]",-69%,-92%,+1 Wells,–,–,"% change in complement level (whole complement; i.p., time 120): -98%"
NCCCCCC(=O)O [6-aminohexanoic acid],–,–,–,used with success,–,–
Cc1ccc(C(=O)Nc2ccc(S(=O)(=O)O)c3cc(S(=O)(=O)O)cc(S(=O)(=O)O)c23)cc1NC(=O)c1cccc(NC(=O)Nc2cccc(C(=O)Nc3cc(C(=O)Nc4ccc(S(=O)(=O)O)c5cc(S(=O)(=O)O)cc(S(=O)(=O)O)c45)ccc3C)c2)c1 [Suramin],–,–,–,used with success,competitive inhibitor of the complement system,–
"Nc1ccc2cc(S(=O)(=O)O)cc(O)c2c1N=Nc1ccc(NC(=O)Nc2ccc(N=Nc3c(N)ccc4cc(S(=O)(=O)O)cc(O)c34)c(S(=O)(=O)O)c2)cc1S(=O)(=O)O [chlorazol fast pink, 3,3-(carbonyldiimino)bis[6-(2-amino-8-hydroxy-6-sulfo-1-naphthylazo)benzenesulfonic acid], tetrasodium salt]",–,–,–,–,anticomplementary effect,–
"O=C(Nc1cc(C(=O)Nc2cc(S(=O)(=O)O)cc3cc(S(=O)(=O)O)cc(S(=O)(=O)O)c23)cc(C(=O)Nc2cc(S(=O)(=O)O)cc3cc(S(=O)(=O)O)cc(S(=O)(=O)O)c23)c1)Nc1cc(C(=O)Nc2cc(S(=O)(=O)O)cc3cc(S(=O)(=O)O)cc(S(=O)(=O)O)c23)cc(C(=O)Nc2cc(S(=O)(=O)O)cc3cc(S(=O)(=O)O)cc(S(=O)(=O)O)c23)c1 [8,8',8"",8'""-[Carbonylbis[imino-5,1,3-benzenetriylbis(carbonylimino)]]tetrakis[1,3,6-naphthalenetrisulfonic acid]dodecasodium salt]",-88%,-85%,+5 Wells,–,–,"C1 026* Wells (activated human C1): +9 Wells; C-Late 035* Wells [2]: +3 Wells; % change in complement level (whole complement; i.p., time 120): -92%; % change in complement level (whole complement; i.v., time 2): -98%; % change in complement level (whole complement; i.v., time 30): -97%; % change in complement level (whole complement; i.v., time 120): -89%"
